# Reference: ChEMBL document CHEMBL1201862, “PubChem BioAssay data set” (2004)
#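 A five-concentration, 48-hour dose response in 96-well plates underlies each endpoint, interpolated linearly between surrounding concentrations. Abbreviation: GI50, concentration required for 50% inhibition of growth.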 Calls of active or inactive are those of the source. Rule as the data show it: active = GI50 up to about 1.1 µM and inactive = higher.
# How the values were obtained:
# Test in all cases: NCI tumour cell line growth inhibition, 48 h
# HCT-15 = tested on: HCT-15
# UACC-62 = tested on: UACC-62
# DMS-114 = tested on: DMS-114
# SW-620 = tested on: SW-620
# IGROV-1 = tested on: IGROV-1
# RPMI-8226 = tested on: RPMI-8226
# LXFL 529 = tested on: LXFL 529
# MDA-N = tested on: MDA-N
# T47D = tested on: T47D
# SNB-19 = tested on: SNB-19
# MCF7 = tested on: MCF7
# NCI-H23 = tested on: NCI-H23
# RXF 631 = tested on: RXF 631
# HOP-92 = tested on: HOP-92
# UACC-257 = tested on: UACC-257
# A549 = tested on: A549
# BT-549 = tested on: BT-549
# SF-539 = tested on: SF-539
# NCI/ADR-RES = tested on: NCI/ADR-RES
# SK-MEL-2 = tested on: SK-MEL-2
# CAKI-1 = tested on: CAKI-1
# SK-OV-3 = tested on: SK-OV-3
# SK-MEL-5 = tested on: SK-MEL-5
# DMS-273 = tested on: DMS-273
# U-251 = tested on: U-251
# SF-295 = tested on: SF-295
# EKVX = tested on: EKVX
# CCRF-CEM = tested on: CCRF-CEM
# Malme-3M = tested on: Malme-3M
# 786-0 = tested on: 786-0
# MOLT-4 = tested on: MOLT-4
# NCI-H460 = tested on: NCI-H460
# K562 = tested on: K562
# TK-10 = tested on: TK-10
# OVCAR-4 = tested on: OVCAR-4
# HOP-62 = tested on: HOP-62
# XF498 = tested on: XF498
# OVCAR-5 = tested on: OVCAR-5
# SNB-78 = tested on: SNB-78
# M14 = tested on: M14
# ACHN = tested on: ACHN
# NCI-H522 = tested on: NCI-H522
# SK-MEL-28 = tested on: SK-MEL-28
# HT-29 = tested on: HT-29
# OVCAR-8 = tested on: OVCAR-8
# A498 = tested on: A498
# UO-31 = tested on: UO-31
# HL-60 = tested on: HL-60
# MDA-MB-231 = tested on: MDA-MB-231
# OVCAR-3 = tested on: OVCAR-3
# RXF 393 = tested on: RXF 393
# KM12 = tested on: KM12
# HCC 2998 = tested on: HCC 2998
# DU-145 = tested on: DU-145
# SN12C = tested on: SN12C
# MDA-MB-435 = tested on: MDA-MB-435
# KM-20L2 = tested on: KM-20L2
# LOX IMVI = tested on: LOX IMVI
# HCT-116 = tested on: HCT-116
# PC-3 = tested on: PC-3
# M19-MEL = tested on: M19-MEL
# SNB-75 = tested on: SNB-75
# SF-268 = tested on: SF-268
# DLD-1 = tested on: DLD-1
# Hs-578T = tested on: Hs-578T
# NCI-H226 = tested on: NCI-H226
# COLO 205 = tested on: COLO 205
smiles,measurement,setting,value
COC(=O)C(CBr)CBr,GI50,HCT-15,1.71 µM
same,GI50,UACC-62,9.42 µM (inactive)
same,GI50,DMS-114,2.06 µM (inactive)
same,GI50,SW-620,1.27 µM (inactive)
same,GI50,IGROV-1,10.4 µM (inactive)
same,GI50,RPMI-8226,0.757 µM (active)
same,GI50,LXFL 529,1.79 µM (inactive)
same,GI50,MDA-N,3.48 µM (inactive)
same,GI50,T47D,2.5 µM (inactive)
same,GI50,SNB-19,8.51 µM (inactive)
same,GI50,MCF7,4.46 µM (inactive)
same,GI50,NCI-H23,6.78 µM (inactive)
same,GI50,RXF 631,3.05 µM (inactive)
same,GI50,HOP-92,1.79 µM (inactive)
same,GI50,UACC-257,5.58 µM (inactive)
same,GI50,A549,18.2 µM (inactive)
same,GI50,BT-549,2.65 µM (inactive)
same,GI50,SF-539,5.96 µM (inactive)
same,GI50,NCI/ADR-RES,3.1 µM (inactive)
same,GI50,SK-MEL-2,10.8 µM (inactive)
same,GI50,CAKI-1,5.51 µM (inactive)
same,GI50,SK-OV-3,18.8 µM (inactive)
same,GI50,SK-MEL-5,8.75 µM (inactive)
same,GI50,DMS-273,12.7 µM (inactive)
same,GI50,U-251,5.56 µM (inactive)
same,GI50,SF-295,16.2 µM (inactive)
same,GI50,EKVX,9.55 µM (inactive)
same,GI50,CCRF-CEM,0.762 µM (active)
same,GI50,Malme-3M,2.2 µM (inactive)
same,GI50,786-0,4.52 µM (inactive)
same,GI50,MOLT-4,1.69 µM (inactive)
same,GI50,NCI-H460,14 µM (inactive)
same,GI50,K562,1.57 µM (inactive)
same,GI50,TK-10,4.79 µM (inactive)
same,GI50,OVCAR-4,4.03 µM (inactive)
same,GI50,HOP-62,22.5 µM (inactive)
same,GI50,XF498,2.3 µM (inactive)
same,GI50,OVCAR-5,16.8 µM (inactive)
same,GI50,SNB-78,1.79 µM (inactive)
same,GI50,M14,2.15 µM (inactive)
same,GI50,ACHN,3.7 µM (inactive)
same,GI50,NCI-H522,2.14 µM (inactive)
same,GI50,SK-MEL-28,3.77 µM (inactive)
same,GI50,HT-29,4.1 µM (inactive)
same,GI50,OVCAR-8,3.41 µM (inactive)
same,GI50,A498,16.8 µM (inactive)
same,GI50,UO-31,5.65 µM (inactive)
same,GI50,HL-60,0.253 µM (active)
same,GI50,MDA-MB-231,2.12 µM (inactive)
same,GI50,OVCAR-3,2.65 µM (inactive)
same,GI50,RXF 393,2.19 µM (inactive)
same,GI50,KM12,8.04 µM (inactive)
same,GI50,HCC 2998,4.49 µM (inactive)
same,GI50,DU-145,16.6 µM (inactive)
same,GI50,SN12C,3.9 µM (inactive)
same,GI50,MDA-MB-435,3.33 µM (inactive)
same,GI50,KM-20L2,6.76 µM (inactive)
same,GI50,LOX IMVI,2.6 µM (inactive)
same,GI50,HCT-116,2.96 µM (inactive)
same,GI50,PC-3,10.2 µM (inactive)
same,GI50,M19-MEL,3.21 µM (inactive)
same,GI50,SNB-75,16.3 µM (inactive)
same,GI50,SF-268,15.1 µM (inactive)
same,GI50,DLD-1,2.04 µM (inactive)
same,GI50,Hs-578T,4.65 µM (inactive)
same,GI50,NCI-H226,13.3 µM (inactive)
same,GI50,COLO 205,1.27 µM (inactive)
